{"source": "patent US7863295B2", "about": "“Treatments for neuropathy” (Children's Medical Center Corporation, priority 2008, dated 2011)", "key": {"GFAP-DN-erbB4 mice [1]": {"system": "GFAP-DN-erbB4 mice", "assay": "Hot plate test (thermal nociception) in GFAP-DN-erbB4 mice treated topically with XIB4035 cream", "assay_type": "in vivo, mouse", "details": "cream 1.2 mM on hind paws twice daily for 4 weeks from P21, vs control cream", "method": "(§1) We generated a cream containing XIB4035 (1.2 mM) and applied it directly to the hind paws of GFAP-DN-erbB4 and wild type mice twice daily for a period of 4 weeks starting at the time of weaning (P21). […] Thus, these experiments would test whether activation of Ret signaling has therapeutic effects after disease onset. To control for potential effects of the control cream, mice of both genotypes were treated in the same way with the base cream without the drug. Mice were tested for responses to noxious thermal stimulus prior to the initiation of treatment and every 7 days throughout the treatment period. […] Together, these findings indicate that topical treatment with XIB4035 preserves the ability of mice with SFN to respond to noxious heat stimulus without inducing hypersensitivity.\n(§2) Animals and induction of neuropathy using RTX. Transgenic mouse lines used were as previously described (6, 8). Animals were kept in the animal facility with free access to food and water. Behavioral experiments were performed in a quiet environment at the same time of day. […] Paw withdrawal latency was measured as the time required for the mouse to visibly respond to the thermal stimulus, e.g. licking paws, lifting paws, or jumping off of the plate. […] The threshold was determined as the lowest force that evoked a visible withdrawal response. […]"}, "wild type mice [2]": {"system": "wild type mice", "assay": "Hot plate test (thermal nociception) in wild type mice treated topically with XIB4035 cream", "assay_type": "in vivo", "details": "cream 1.2 mM on hind paws twice daily for 4 weeks from P21", "method": "as §1, §2"}, "[3]": {"system": "GFAP-DN-erbB4 and wild type mice", "assay": "Mechanical sensitivity (von Frey filaments) after topical XIB4035 cream", "assay_type": "in vivo", "details": "all groups (GFAP-DN-erbB4 and wild type) after 4 weeks of topical treatment, 1.2 mM cream", "method": "as §1, §2"}, "GFAP-DN-erbB4 mice [4]": {"system": "GFAP-DN-erbB4 mice", "assay": "Electron microscopy / morphometric analysis of Remak bundles in GFAP-DN-erbB4 mice", "assay_type": "in vivo, mouse", "details": "4-week topical treatment, 1.2 mM cream", "method": "(§3) Preparation and Use of XIB4035. The cream containing XIB4035 (1.2 mM, Matrix Scientific, Columbia, S.C.) consisted of N-methyl-pyrrolidone (5%), isopropyl myristate (5%) and petroleum jelly (90%). Control cream had the same ingredients without XIB4035. Cream was applied twice daily to the hind paws of isoflurane anesthetized mice starting at P21 for a period of 9 days (for analysis of cell death in sciatic nerves) or 4 weeks (all other studies using GFAP-DN-erbB4). Treatment of RTX-induced neuropathy began at the time of RTX injection or 12 hours after RTX injection and proceeded twice daily for a period of one week.\n(§4) Plastic Embedding and Electron Microscopy. Tissue was prepared as in (6). Briefly, mice were perfused intracardially with 2% paraformaldehyde, 2.5% gluteraldehyde and 0.03% picric acid in 0.1 M cacodylate buffer (pH 7.2). Tissue was post-fixed overnight at 4° C. and embedded in Epon. Ultrathin sections were cut, collected on cellodin-coated grids and stained using uranyl acetate and lead citrate. Photographs were taken using the Tecnai G^2 Spirit BioTWIN transmission electron microscope."}, "GFAP-DN-erbB4 mice [5]": {"system": "GFAP-DN-erbB4 mice", "assay": "Cell death detection (TUNEL) in sciatic nerves of GFAP-DN-erbB4 mice", "assay_type": "in vivo, mouse", "details": "sciatic nerve, topical cream 1.2 mM twice daily for 9 days from P21", "method": "as §3\nCell Death Detection. Sciatic nerves were dissected from mice perfused with 4% paraformaldehyde in PBS and fixed overnight at 4° C. Nerves were embedded in OCT and 16 µm thick transverse sections were processed for TUNEL as follows. Sections were washed 3 times for 5 minutes with PBS followed by proteinase K digestion (0.02 U/mL) in 10 mM TRIS/HCl pH 7.5 for 30 minutes at 37° C. Digested sections were fixed with 4% paraformaldehyde at room temperature for 20 minutes followed by 3 washes in PBS for 5 minutes. Apoptotic nuclei were identified using the In Situ Cell Death Detection Kit (Roche). Nuclei were stained with DAPI and sections were mounted with Gel-Mount."}, "GFAP-DN-erbB4 mice [6]": {"system": "GFAP-DN-erbB4 mice", "assay": "Footpad skin innervation (PGP9.5 immunohistochemistry) in GFAP-DN-erbB4 mice", "assay_type": "in vivo, mouse", "details": "4-week topical treatment, 1.2 mM cream", "method": "as §3\n(§5) Immunohistochemistry. Mice were anesthetized with 2.5% Avertin and footpad skin was removed and immersion fixed in 4% paraformaldehyde, 14% picric acid in 0.1 M phosphate buffer (pH 7.3) overnight at 4° C. and cryoprotected in 20% sucrose overnight at 4° C. Tissues were embedded in OCT and sectioned at 30 µm and stained as floating sections by washing 3 times for 5 minutes in PBS+0.1% Triton-X 100, blocked for 30 minutes in PBS+0.1% Triton-X 100+10% normal goat serum and then incubated, PGP9.5 rabbit polyclonal antibody (Ultraclone, 1:1000), overnight at 4° C. Sections were washed 3 times for 10 minutes in PBS+0.1% Triton-X 100 then incubated in donkey anti-rabbit Alexa-488 (Invitrogen) 1:300 for 2 hours at room temperature. […]"}, "wild type mice [7]": {"system": "wild type mice", "assay": "Footpad skin innervation (PGP9.5 immunohistochemistry) in wild type mice", "assay_type": "in vivo, mouse", "details": "4-week topical treatment, 1.2 mM cream", "method": "as §3, §5"}, "RTX-injected mice [8]": {"system": "RTX-injected mice", "assay": "Hot plate test in resiniferatoxin (RTX)-induced SFN", "assay_type": "in vivo, mouse", "source_text": "(§6) As it is unlikely that SFN is always caused by glial dysfunction, we considered it necessary to test the effectiveness of XIB4035 treatment on SFN resulting from a different pathogenic mechanism. Therefore we tested the efficacy of our therapeutic approach in resiniferatoxin (RTX)-induced SFN (9). RTX-induced SFN involves intraperitoneal injection of an ultrapotent capsaicin analog that targets c-fiber terminals by binding to and activating TRPV1 channels resulting in calcium influx, which induces loss of skin innervation and loss of thermal nociception (9). After RTX injection, mice were either treated immediately with XIB4035 or treatment was delayed by 12 hours. Both treatment paradigms yielded similar results.\n(§7) Furthermore, innervation of the skin was preserved as a result of XIB4035 treatment in RTX-injected mice. […] Both c-fiber area and the number of fibers per Remak bundle were improved by treatment with XIB4035 in RTX-induced SFN.\nas §2, with “water.” for “water. Behavioral experiments were performed in a quiet environment at the same time of day.”"}, "RTX-injected mice [9]": {"system": "RTX-injected mice", "assay": "Skin innervation in RTX-induced SFN", "assay_type": "in vivo, mouse", "details": "topical cream 1.2 mM twice daily for one week", "source_text": "as §6, §7\nPreparation and Use of XIB4035. The cream containing XIB4035 (1.2 mM, Matrix Scientific, Columbia, S.C.) consisted of N-methyl-pyrrolidone (5%), isopropyl myristate (5%) and petroleum jelly (90%). Control cream had the same ingredients without XIB4035. […]"}, "RTX-injected mice [10]": {"system": "RTX-injected mice", "assay": "Remak bundle structure (electron microscopy) in RTX-induced SFN", "assay_type": "in vivo, mouse", "details": "topical cream 1.2 mM twice daily for one week", "source_text": "as §6, §7, §3, §4"}, "GFR[…]1 GDNF receptor [11]": {"target": "T1, GFR[…]1 GDNF receptor (Homo sapiens, UniProt P56159)", "T1 sequence (P56159 25-429)": "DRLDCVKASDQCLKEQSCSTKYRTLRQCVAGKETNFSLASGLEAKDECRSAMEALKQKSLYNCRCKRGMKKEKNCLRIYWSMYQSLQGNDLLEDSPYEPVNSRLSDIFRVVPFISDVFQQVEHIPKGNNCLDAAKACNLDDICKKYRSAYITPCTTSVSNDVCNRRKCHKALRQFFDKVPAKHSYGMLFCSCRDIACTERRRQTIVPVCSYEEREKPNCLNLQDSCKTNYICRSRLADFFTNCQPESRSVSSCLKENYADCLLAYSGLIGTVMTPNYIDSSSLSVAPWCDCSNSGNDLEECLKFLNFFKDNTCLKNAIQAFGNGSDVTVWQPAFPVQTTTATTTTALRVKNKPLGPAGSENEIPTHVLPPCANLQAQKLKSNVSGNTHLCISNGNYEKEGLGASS", "details": "human cells; reference 11; cited from earlier work"}, "GFR[…]1 GDNF receptor [12]": {"target": "T2, GFR[…]1 GDNF receptor (Mus musculus, UniProt P97785)", "T2 sequence (P97785 25-430)": "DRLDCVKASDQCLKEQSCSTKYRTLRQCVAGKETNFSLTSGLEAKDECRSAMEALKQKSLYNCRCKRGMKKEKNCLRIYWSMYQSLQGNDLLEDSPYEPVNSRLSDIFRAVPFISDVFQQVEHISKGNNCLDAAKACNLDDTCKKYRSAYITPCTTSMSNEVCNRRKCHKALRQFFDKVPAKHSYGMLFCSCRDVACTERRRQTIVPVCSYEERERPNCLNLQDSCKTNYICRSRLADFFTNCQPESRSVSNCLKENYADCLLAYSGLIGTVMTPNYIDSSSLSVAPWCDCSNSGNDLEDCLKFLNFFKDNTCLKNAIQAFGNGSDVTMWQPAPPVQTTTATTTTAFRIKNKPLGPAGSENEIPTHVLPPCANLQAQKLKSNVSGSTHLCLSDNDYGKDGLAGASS", "details": "murine cells; reference 11; cited from earlier work"}}}
{"smiles": "CCN(CC)CCCC(C)Nc1cc(/C=C/c2ccccc2Cl)nc2cc(Cl)ccc12", "note": "(centres unmarked) [XIB4035, N4-{7-chloro-2-[(E)-2-(2-chloro-phenyl)-vinyl]-quinolin-4-yl}-N1,N1-diethyl-pentane-1,4-diamine]", "values": [{"measurement": "thermal nociception (hot plate, response to noxious thermal stimulus)", "setting": "GFAP-DN-erbB4 mice [1]", "value": "dramatic preservation of thermal nociception"}, {"measurement": "behavior in response to noxious thermal stimulus", "setting": "wild type mice [2]", "value": "remained normal"}, {"measurement": "response thresholds to punctate mechanical stimuli (mechanoreception)", "setting": "[3]", "value": "no effect on mechanoreception"}, {"measurement": "degeneration of Remak bundles and c-fiber axons", "setting": "GFAP-DN-erbB4 mice [4]", "value": "prevented the degeneration of Remak bundles and c-fiber axons"}, {"measurement": "number of c-fibers per Remak bundle (morphometric analysis)", "setting": "GFAP-DN-erbB4 mice [4]", "value": "preserved"}, {"measurement": "size of c-fiber axons (morphometric analysis)", "setting": "GFAP-DN-erbB4 mice [4]", "value": "preserved"}, {"measurement": "NMSC apoptosis", "setting": "GFAP-DN-erbB4 mice [5]", "value": "significantly reduced"}, {"measurement": "sensory nerve terminals in the footpad skin", "setting": "GFAP-DN-erbB4 mice [6]", "value": "prevented degeneration of sensory nerve terminals"}, {"measurement": "density of nerve terminals in skin", "setting": "wild type mice [7]", "value": "increased the density of nerve terminals"}, {"measurement": "thermal nociception", "setting": "RTX-injected mice [8]; RTX model, cream 1.2 mM twice daily for one week, started at RTX injection or 12 hours later (similar results)", "value": "greatly improved thermal nociception"}, {"measurement": "ability to respond to noxious heat (paw withdrawal latency)", "setting": "RTX-injected mice [8]; RTX-injected mice, seven days after RTX, vs control cream", "value": "remarkable preservation of their ability to respond to noxious heat"}, {"measurement": "innervation of the skin", "setting": "RTX-injected mice [9]", "value": "preserved"}, {"measurement": "c-fiber area", "setting": "RTX-injected mice [10]; RTX-induced SFN", "value": "improved"}, {"measurement": "number of fibers per Remak bundle", "setting": "RTX-injected mice [10]; RTX-induced SFN", "value": "improved"}, {"measurement": "Remak bundle structure", "setting": "RTX-injected mice [10]; RTX-injected mice", "value": "significantly improved"}, {"measurement": "activation of the Ret co-receptor by binding to the GDNF receptor", "setting": "GFR[…]1 GDNF receptor [11]", "value": "activate the Ret co-receptor"}, {"measurement": "activation of the Ret co-receptor by binding to the GDNF receptor", "setting": "GFR[…]1 GDNF receptor [12]", "value": "activate the Ret co-receptor"}]}
